Patent US20100166726A1, “COMPOSITIONS FOR IMPROVING CELLULAR UPTAKE OF A CHEMOTHERAPEUTIC AGENT IN A CELL EXHIBITING MUCIN DEREGULATION” (NORTHEASTERN UNIVERSITY, priority 2007, published 2010)
Values belong to the compound of their own block, whether it stands above or below them.

How the values were obtained:
Capan-1 tumors [1] = experiment: Anti-tumoral activity in Capan-1 pancreatic tumor model (tumor volume, histochemical staining, neoplastic cell density); format: in vivo, SCID mice; conditions: for histochemical staining of tumor sections, neoplastic cells: H&E stained sections; for tumor volume compared to control tumors (saline group): benzyl-α-GalNAc intratumoral days 4, 6, 8, 10, 5-FU intravenous, total 125 mg/kg; for Percent Tumor Area (neoplastic cell density as percent of total tumor area): bioquant imaging software, tumor sections at end of experiment
Method: All animal work was performed in the animal facility at Northeastern University, Boston, Mass. in accordance with the institutional guidelines. Female SCID (severe combined immunodeficient mice), 6 to 8 weeks old purchased from Massachusetts General Hospital, Boston, Mass. were used for our study since they have been used successfully for developing human xenografts of pancreatic tumors. To establish the tumors, 2.5×10^6 Capan-I cells in 0.1 ml of cell culture medium were injected into the subcutaneous dorsa of all mice. Mice were weighed daily using a digital weighing balance (AccuSeries®, Fisher Scientific, Arvada, Colo.) and tumor volumes were also measured every day using an electronic digital caliper (Control Company, Friendswood, Tex.). Tumor volumes were calculated using the formula a^2×b×0.52, where “a” is the longer diameter and “b” is the shorter diameter. Once the tumor volumes were approximately 50 mm^3-70 mm^3 the experimental groups received intratumoral injections of benzyl-α-GalNAc (0.1 ml injection; 10 mg/ml) whereas […] at intervals of 48 hr. When the tumor volumes were approximately 100 mm^3 5-FU was administered via the intravenous route. Animals in treatment groups received two injections (0.1 ml) of 5-FU at interval of 4 days whereas control mice received saline (0.1 ml). The total dose of 5-FU administered was 125 mg/kg. At the end of the experiment animals were sacrificed, tumor tissue was surgically removed and fixed in 10% formalin at 4° C. for histochemical staining.
For histochemical staining, paraffin-embedded tissue sections (5 μm) were stained with hematoxylin and eosin (H&E) to evaluate and compare the extent of tissue viability. The tumor sections were scanned and qualitative images captured using brightfield microscopy (Olympus BX61WI, NY). The number of tumor cells in each section was quantified using bioquant imaging software and expressed as percent of total tumor area. To quantify the total tumor area we first traced the outline of the entire tumor section in each field of view (FOV). The pixels within the traced area were then selected and the pixel count was determined by the software. A total of five FOV were analyzed to determine the total pixel count of the tumor area. Microscope stage encoders were used to ensure that no tumor area was counted more than once. Similarly the total pixel count of the neoplastic cells featured in blue in each FOV was determined. The total percent of neoplastic cell density was calculated as follows: […]
For these studies the pancreatic cell line, Capan-1 was used to used to establish a pancreatic tumor model. Capan-1 tumors were established in subcutaneous dorsa of female SCID mice (see, Example 7). […] 5-FU therapy began when the tumor size was approximately 100 mm^3.

U-87 MG cells [2] = experiment: 5-FU cytotoxicity with or without benzyl-α-GalNAc pre-exposure, sulforhodamine B assay; format: cell-based, human
HPAF-II cells [3] = experiment: as above; format: cell-based, human
Method: The effects of increasing benzyl-α-GalNAc concentrations on cytotoxicity of 5-FU (108 μmol/ml) against HPAF-II cells was first tested. […] The growth inhibitory effect of 5-FU after 24 hr of exposure was determined using sulforhodamine B (Sigma-Aldrich, St. Louis, Mo.) assay the percent of viable cells was calculated as follows: […]

U-87 MG cells [4] = experiment: Intracellular uptake of 5-FU by immunofluorescence labeling; format: cell-based, human
Method: (§7) Capan-1 and U-87 MG cells were exposed to the maximum non-toxic concentration of benzyl-α-GalNAc for 48 hr followed by 1 hr and 4 hr exposure to 5-FU (50 μmol/ml). The intracellular levels of the drug were determined using a primary antibody against 5-FU followed by FITC-conjugated secondary antibody. Specifically, sterile cover slips were placed in 24-well plates (Corning, N.Y.). Cells were seeded at 2×10^4 per ml in the same 24-well plates. Following a 24 hr incubation period at 37° C. cells was exposed to the maximum non-toxic concentration of benzyl-α-GalNAc solution prepared in cell culture media, the control cells were incubated in growth media without the O-glycosylation inhibitor. Following an additional 48 hr of incubation, each row was washed with 1×PBS and treated with 5-FU prepared in cell growth medium. The intracellular uptake of 5-FU following 1 hr and 4 hr of cell exposure to drug was determined by immunofluorescence labeling. Briefly, the medium containing 5-FU was aspirated and cells were washed twice with 1×PBS. The cells were then fixed with cold methanol for 10 min at −20° C. followed by rinsing with cold acetone. The cells were next washed twice with 1×PBS followed by 30 min rehydration in 1×PBS. For immunolabeling, cells were exposed to 200 μl (1:1000 dilution; stock concentration: 1 mg/ml) of primary antibody against 5-FU (Lampire Biological Laboratories, Pipersville, Pa.) for 1 hr at room temperature. The unassociated primary antibody was removed by washing three times with 1×PBS and cells were then incubated at room temperature with 200 μl (1:1000 dilution; stock concentration: 1 mg/ml) of fluorescein isothiocyanate (FITC)-conjugated goat anti-mouse IgG secondary antibody (Lampire Biological Laboratories, Pipersville, Pa.). Following 1 hr incubation with the secondary antibody, cells were washed twice with 1×PBS to remove any unassociated secondary antibody and the fluorescence intensity was measured using a fluorescence microplate reader (Bio-Tek® Instruments Inc., VT) at excitation wavelength of 485 nm and emission wavelength of 528 nm. The intracellular uptake of 5-FU was observed under a fluorescence microscope. The coverslip from each well was mounted onto a glass microslide (Corning, N.Y.) with SlowFade® Gold antifade reagent (Invitrogen, Carlsbad, Calif.). The images were captured using a combination of fluorescence and DIC microscopic applications at 20× magnification (Olympus BX61WI-Melville, N.Y.).

Capan-1 cells [5] = experiment: 5-FU cytotoxicity with or without benzyl-α-GalNAc pre-exposure, sulforhodamine B assay; format: cell-based, human
Capan-1 cells [6] = experiment: Intracellular uptake of 5-FU by immunofluorescence labeling
Method: as §7

HPAF-II cells [7] = experiment: Neuraminidase toxicity and effect on 5-FU cytotoxicity, sulforhodamine B assay; format: cell-based, human
Method: The enzyme neuraminidase, which cleaves terminal sialic acid residues, was used in these studies (Varki et al., J. Biol. Chem., 258:12465-12471 [1983]). […] The removal of sialic acid residues from cell surface was confirmed by labeling cells with 5 μl/well FITC conjugated MAA lectin for 30 mins. The effects of neuraminidase on CD227 antibody association was determined by labeling cells with 5 μl/well CD227 antibody for 4 hr. […] The effects of neuraminidase on 5-FU cytotoxicity was determined by exposing cells to 0.05 U/ml neuraminidase for 1 hr followed by treatment with 5-FU for 24 hr. Percent cell viability was determined using sulforhodamine B assay.

Capan-1 tumors [8] = experiment: MUC1 carbohydrate staining of tumors after intratumoral benzyl-α-GalNAc; format: in vivo, SCID mice; conditions: four intratumoral injections (10 mg/ml, 0.1 cc) at intervals of 48 hr
Method: (§1) All animal work was performed in the animal facility at Northeastern University, Boston, Mass. in accordance with the institutional guidelines. Female SCID (severe combined immunodeficient mice), 6 to 8 weeks old purchased from Massachusetts General Hospital, Boston, Mass. were used for our study since they have been used successfully for developing human xenografts of pancreatic tumors. To establish the tumors, 2.5×10^6 Capan-I cells in 0.1 ml of cell culture medium were injected into the subcutaneous dorsa of all mice. Mice were weighed daily using a digital weighing balance (AccuSeries®, Fisher Scientific, Arvada, Colo.) and tumor volumes were also measured every day using an electronic digital caliper (Control Company, Friendswood, Tex.). Tumor volumes were calculated using the formula a^2×b×0.52, where “a” is the longer diameter and “b” is the shorter diameter. […]
(§2) In order to test the in vivo effect of Benzyl-α-GalNAc in a pancreatic tumor model, Benzyl-α-GalNAc was administered locally into the tumor mass of mice via intratumoral injections (10 mg/ml, 0.1 cc). […] Following intratumoral injections, the sections of subcutaneous Capan-1 and HPAF-II tumors were analyzed for MUC1 carbohydrate staining (FIG. 7B).

HPAF-II tumors = experiment: as above; format: in vivo, SCID mice; conditions: four intratumoral injections (10 mg/ml, 0.1 cc) at intervals of 48 hr
Method: as §1, §2

Capan-1 cells [9] = experiment: Cell viability and morphology after removal of benzyl-α-GalNAc; format: cell-based, human
Method: (§3) These experiments were conducted to determine whether the successful elimination of the glycosylated functional groups surrounding the MUC1 peptide core limit the capacity of cells to proliferate once benzyl-α-GalNAc has been removed. A significant change in cells' ability to multiply and divide due to exposure to benzyl-α-GalNAc would affect the measure of MUC1's role in our experiment. Capan-1 and HPAF-II cells were exposed to benzyl-α-GalNAc for 48 hr. Percent of cell viability was determined 24 hr, 48 hr, and 72 hr after removal of benzyl-α-GalNAc. […] Following 48 hr exposure to benzyl-α-GalNAc cells were washed with 1×PBS and then allowed to grow for an additional 24 hr, 48 hr, and 72 hr in fresh media.

HPAF-II cells [10] = experiment: as above; format: cell-based, human
Method: as §3

U-87 MG cells [11] = conditions: 72 hr exposure
Method: In order to determine the contribution of MUC1 expression in the delivery of drugs such as 5-FU to pancreatic tumors, the maximum non-toxic concentration of benzyl-α-GalNAc that could be used to inhibit O-glycosylation of MUC1 was determined from cellular toxicity studies. These cellular toxicity studies were performed as follows. Cells were seeded at 1×10^4 per ml in 48-well plates. Following a 24 hr incubation period at 37° C., cells were exposed to various concentrations of benzyl-α-GalNAc solution (Sigma-Aldrich, St. Louis, Mo.) prepared in media. After 72 hr of cell exposure to benzyl-α-GalNAc, the percent of cell viability was determined using sulforhodamine B assay (Kalra et al., Pharm. Res., 23(12):2809-2817 (2006); Skehan et al., J. Natl. Cancer Inst,. 82:1107-1112 (1990)) and calculated as follows:

Capan-1 cells [12] = experiment: Cellular toxicity of benzyl-α-GalNAc, sulforhodamine B assay; format: cell-based, human; conditions: 72 hr exposure
Method: (§4) O-glycosylation is critical for mucin formation. […] These cellular toxicity studies were performed as follows.

HPAF-II cells [13] = experiment: as above; format: cell-based, human; conditions: 72 hr exposure
Method: as §4

[14] = system: Capan-1, HPAF-II, and U-87 MG cells; experiment: Cell morphology by DIC microscopy after benzyl-α-GalNAc exposure; format: cell-based, human; conditions: 72 hr exposure at maximum non-toxic concentration
Method: To observe the effects of benzyl-α-GalNAc exposure on cell morphology, differential interference contract (DIC) microscopy was employed. Sterile cover slips were placed in six-well plates (Corning, N.Y.). Capan-1, HPAF-II, and U-87 MG cells were next seeded at 1×10^4 per ml in the same 6-well plates.

Capan-1 cells [15] = experiment: Anti-MUC1 (CD227) antibody association after benzyl-α-GalNAc exposure (microplate fluorescence, FACS); format: cell-based, human
Method: (§5) In order to determine whether the concentrations of benzyl-α-GalNAc employed are sufficient to inhibit MUC1 O-glycosylation, we observed the alterations in anti-MUC1 (CD227) association after exposure to the inhibitor. The antibody association studies were performed as follows. […] After each exposure time point the cells were washed with 1×PBS and 1 ml of fresh media was added to each well. The cells were then exposed to 4 μl/well of anti-MUC1 antibody.
(§6) Fluorescence-activated cell-sorting (FACS) analysis was then performed as follows. […] After 48 hr exposure to benzyl-α-GalNAc cells were washed with 1×PBS and 1 ml of fresh media was added to each well. The cells were then exposed to 4 μl/well of CD227 antibody. Following 24 hr incubation with the antibody, cells were washed with 1×PBS to remove any unassociated antibody and cells were detached using 0.5 ml/well trypsin. Cells were then washed with 1×PBS and antibody association was determined using FACS analysis.

HPAF-II cells [16] = experiment: as above; format: cell-based, human
Method: as §5, §6

U-87 MG cells [17] = experiment: Anti-MUC1 (CD227) antibody association after benzyl-α-GalNAc exposure (FACS); format: cell-based, human; conditions: 48 hr exposure
Method: as §6

[18] = 5-FU exposure 1 h, Benzyl-α-GalNAc + (48 hr pre-treatment)
[19] = 5-FU exposure 1 h, Benzyl-α-GalNAc −
[20] = 5-FU exposure 4 h, Benzyl-α-GalNAc + (48 hr pre-treatment)
[21] = 5-FU exposure 4 h, Benzyl-α-GalNAc −
[22] = 48 hr exposure then fresh media
[23] = 24 hr, 48 hr, or 72 hr exposure at maximum non-toxic concentration

Intracellular uptake of 5-Fluorouracil, fluorescence intensity (U-87 MG cells [4]; [18]): 2346.9 arbitrary units | Intracellular uptake of 5-Fluorouracil, fluorescence intensity (U-87 MG cells [4]; [19]): 3757.0 arbitrary units | Intracellular uptake of 5-Fluorouracil, fluorescence intensity (U-87 MG cells [4]; [20]): 2989.4 arbitrary units | Intracellular uptake of 5-Fluorouracil, fluorescence intensity (U-87 MG cells [4]; [21]): 3704.9 arbitrary units | staining patterns of 5-FU (imaging), pre-treated with benzyl-α-GalNAc (U-87 MG cells [4]; 1 hr or 4 hr of exposure to 5-FU (50 μmol/ml)): did not alter | Intracellular uptake of 5-Fluorouracil, fluorescence intensity (Capan-1 cells [6]; [18]): 7271.4 arbitrary units | Intracellular uptake of 5-Fluorouracil, fluorescence intensity (Capan-1 cells [6]; [19]): 1696.9 arbitrary units | Intracellular uptake of 5-Fluorouracil, fluorescence intensity (Capan-1 cells [6]; [20]): 3933.3 arbitrary units | Intracellular uptake of 5-Fluorouracil, fluorescence intensity (Capan-1 cells [6]; [21]): 4253.0 arbitrary units | fluorescence staining of intracellular 5-FU (imaging), pre-treated with benzyl-α-GalNAc vs 5-FU alone (Capan-1 cells [6]; 1 hr of exposure to 5-FU (50 μmol/ml)): higher fluorescence staining | fluorescence staining of intracellular 5-FU (imaging), pre-treated with benzyl-α-GalNAc vs controls (Capan-1 cells [6]; 4 hr of exposure to 5-FU (50 μmol/ml)): no difference
Compound: O=c1[nH]cc(F)c(=O)[nH]1 [5-FU, 5-fluorouracil]
histochemical staining of tumor sections, neoplastic cells (Capan-1 tumors [1]): fewer tumor cells | tumor volume compared to control tumors (saline group) (Capan-1 tumors [1]): significantly lower | Percent Tumor Area (neoplastic cell density as percent of total tumor area) (Capan-1 tumors [1]): 21.0 ± 1.4% | percent cell viability (U-87 MG cells [2]; 5-FU alone): 37% | percent cell viability (U-87 MG cells [2]; benzyl-α-GalNAc (0.8 mg/ml) prior to 5-FU): 37% | percent viability (HPAF-II cells [3]; 5-FU (108 μmol/ml) alone, 24 hr): 77.1±2.5% | percent viability (HPAF-II cells [3]; pretreated with benzyl-α-GalNAc 0.8 mg/ml for 48 hr, then 5-FU (108 μmol/ml) 24 hr): 63.4±8.6% | percent viability (Capan-1 cells [5]; 5-FU (80 μmol/ml) alone): 65.9±2% | percent viability (Capan-1 cells [5]; benzyl-α-GalNAc (0.4 mg/ml) followed by 5-FU (80 μmol/ml)): 53.6±3.6% | percent viability vs 5-FU alone (HPAF-II cells [7]): not significantly altered | percent viability (HPAF-II cells [7]; human, 24 hr): 49%±4.6

Compound: CC(=O)N[C@H]1[C@@H](OCc2ccccc2)O[C@H](CO)[C@H](O)[C@@H]1O [benzyl-α-GalNAc, benzyl-2-acetamido-2-deoxy-α-D-galactopyranoside]
histochemical staining of tumor sections, neoplastic cells (Capan-1 tumors [1]): dense packing of neoplastic cells | tumor volume compared to control tumors (saline group) (Capan-1 tumors [1]): No difference | Percent Tumor Area (neoplastic cell density as percent of total tumor area) (Capan-1 tumors [1]): 28.3 ± 1.8% | staining for MUC1 O-glycosylation vs tumors not exposed (Capan-1 tumors [8]): Lower staining | staining for MUC1 O-glycosylation vs tumors not exposed (HPAF-II tumors): Lower staining | effect on growth post-removal of inhibitor vs untreated controls (Capan-1 cells [9]; 0.4 mg/ml for 48 hr, then 24 hr, 48 hr, 72 hr in fresh media): No significant effect | morphology (DIC images) post-removal of inhibitor (Capan-1 cells [9]; [22]): no visible morphological changes | effect on growth post-removal of inhibitor vs untreated controls (HPAF-II cells [10]; 0.8 mg/ml for 48 hr, then 24 hr, 48 hr, 72 hr in fresh media): No significant effect | morphology (DIC images) post-removal of inhibitor (HPAF-II cells [10]; [22]): no visible morphological changes | tolerated concentration (U-87 MG cells [11]): > 0.8 mg/mL | benzyl-α-GalNAc concentration at which decrease of percent cell viability vs 5-FU alone was significant (HPAF-II cells [3]; 48 hr exposure followed by 5-FU (108 μmol/ml) 24 hr): ≥ 0.4 mg/mL | maximum non-toxic concentration (Capan-1 cells [12]): 0.4 mg/mL | maximum non-toxic concentration (HPAF-II cells [13]): 0.8 mg/mL | morphological structures of cells compared to cells not exposed [14]: no visible difference | anti-MUC1 (CD227) antibody association, fluorescence intensity vs cells not exposed (Capan-1 cells [15]; [23]): significantly enhanced | FACS analysis of CD227 association vs cells not exposed (Capan-1 cells [15]; 48 hr exposure): shift in fluorescence peaks | anti-MUC1 (CD227) antibody association, fluorescence intensity vs cells not exposed (HPAF-II cells [16]; [23]): significantly enhanced | FACS analysis of CD227 association vs cells not exposed (HPAF-II cells [16]; 48 hr exposure): shift in fluorescence peaks | FACS analysis of CD227 association vs cells not exposed (U-87 MG cells [17]): no shift in peak
